Among the data in patent publication US5516797A, “Immunosuppressive compounds” (Vertex Pharmaceuticals, Incorporated, priority 1994, dated 1996) are Ki, Kd and IC50 values, retold here.

For assay [1], the target named is T1, FK-506 binding protein (FKBP) (Homo sapiens, UniProt P62942). In words: Inhibition of PPIase (rotamase) enzyme activity of FKBP (apparent Ki). In kind it is biochemical. Conditions: substrate N-succinylAla-Ala-Pro-Phe-p-nitroanilide, chymotrypsin-coupled. In a few lines: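 Apparent Ki was estimated by analysing first-order rate constants versus inhibitor concentration. Substrate N-succinyl-Ala-Ala-Pro-Phe-p-nitroanilide isomerization was read spectrophotometrically, with chymotrypsin cleaving 4-nitroanilide from the trans form only.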

For assay [2], the target named is T1, FK-506 binding protein (FKBP). Nature of the assay: Competitive binding to FKBP against [3H]dihydro-FK-506 (apparent Kd). The following applies: competition with [3H]dihydro-FK-506.
For assay [3], the system named is human peripheral blood lymphocytes. In words: Mitogenesis assay PMA: inhibition of proliferation of human PBLs. The assay is classed as cell-based. The following applies: Lymphocyte, PMA (10 ng/ml) plus ionomycin (250 ng/ml), 48 h incubation. In a few lines:
(§1)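 Human PBLs from normal donors, isolated over Histopaque 1077 and cultured in RPMI 1640 with 10% heat-inactivated FCS, were stimulated with PMA or OKT3 mitogen in the presence of compound (DMSO stocks). After 48 h at 37 °C and 5% CO2, cells were pulsed with 1 μCi ³H-thymidine and harvested 24 h later for scintillation counting.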

The test system is the same in assay [4]. In words: Mitogenesis assay OKT3: inhibition of proliferation of human PBLs. In kind it is cell-based. The following applies: Lymphocyte, OKT3 (10^-4 dilution final), 48 h incubation. In a few lines: as §1
Assay [5] concerns PBLs stimulated with LB human viral transformed B lymphoblastoid cells. In words: MLR bioassay LB: inhibition of proliferation in mixed lymphocyte reaction. The assay is classed as cell-based. The following applies: Lymphoblastoid cell, pulsed on day 6, harvested 24 h later. In a few lines:
(§2)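 Fresh human PBLs (5×10^4) stimulated with 5×10^3 Mitomycin C-treated allogeneic EBV-transformed B lymphoblastoid cells in RPMI 1640 with 10% FCS, with or without compound (DMSO stocks). Pulsed on day 6, harvested 24 h later and counted.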

Assay [6] deals with PBLs stimulated with JVM human viral transformed B lymphoblastoid cells. In words: MLR bioassay JVM: inhibition of proliferation in mixed lymphocyte reaction. Conditions: Lymphoblastoid cell, pulsed on day 6, harvested 24 h later. In kind it is cell-based. In a few lines:
as §2

T1 sequence (P62942 whole entry): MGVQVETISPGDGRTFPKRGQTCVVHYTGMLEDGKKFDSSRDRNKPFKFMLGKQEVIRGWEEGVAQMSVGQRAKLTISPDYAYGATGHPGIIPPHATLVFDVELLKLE

On to `COc1cc(C(=O)C(=O)N2CCCC[C@H]2C(=O)OCCCCc2c[nH]c3ccccc23)cc(OC)c1OC` [Compound 94], for which the Ki in assay [1] was determined as 0.016 µM. The Kd in assay [2] turned out to be 0.05 µM. Further, the IC50 (commonly the concentration needed to halve the response being measured) was 5 µM in assay [3], 5.5 µM in assay [4], above 10 µM in assay [5] and 7 µM in assay [6].
For `O=C(C(=O)N1CCCC[C@H]1C(=O)OCc1ccccc1)c1ccc2ccccc2c1` [Compound 47], the Ki in assay [1] was 1.5 µM. Besides, the Kd in assay [2] came out at 0.3 µM. Also, the IC50 in assay [3], in assay [4], in assay [5] and in assay [6] was above 10 µM each time.
As to `COc1cc(C(=O)C(=O)N2CCCC[C@H]2C(=O)OCCCCCCC2CCCCC2)cc(OC)c1OC` [Compound 72], the Ki in assay [1] amounted to 0.05 µM. In assay [2], the Kd was found to be 0.5 µM. Moreover, the IC50 in assay [3] is 9 µM; in assay [4] it was above 10 µM; in assay [5] it was above 10 µM; in assay [6], above 10 µM.
Turning to `COc1cccc(C(=O)C(=O)N2CCCC[C@H]2C(=O)OCc2ccccc2)c1` [Compound 9], the Ki in assay [1] was 0.3 µM. The Kd in assay [2] is above 1.3 µM. Further, the IC50 in assay [3] was above 10 µM; in assay [4], 6.5 µM; in assay [5], above 10 µM; in assay [6], above 10 µM.
Consider `COc1cc(C(=O)C(=O)N2CCCC[C@H]2C(=O)OCCCc2cn(C=O)c3ccccc23)cc(OC)c1OC` [Compound 93], for which the Ki in assay [1] was determined as 0.015 µM. In addition, the Kd in assay [2] was determined as 0.06 µM. In addition, the IC50 in assay [3] turned out to be 6 µM; in assay [4], 7 µM; in assay [5], 10 µM; in assay [6] it was 8.7 µM.
For `O=C(C(=O)N1CCCC[C@H]1C(=O)OCc1ccccc1)c1ccccc1` [Compound 3, (S)-Benzyl N-(phenylglyoxyl)pipecolate], in assay [2], the Kd was above 2 µM. Moreover, the concentration for half-maximal inhibition (IC50) was 7.6 µM in assay [3], 4.6 µM in assay [4], above 10 µM in assay [5] and above 10 µM in assay [6].
As to `COc1cc(C(=O)C(=O)N2CCCC[C@H]2C(=O)OCCCCCCc2ccccc2)cc(OC)c1OC` [Compound 71], the Ki in assay [1] amounted to 0.1 µM. In addition, the Kd in assay [2] was 0.05 µM. For the same compound, the IC50 in assay [3] was determined as 5 µM; in assay [4] it was 5.5 µM; in assay [5], 7.5 µM; in assay [6], 8 µM.
As for `O=C(C(=O)N1CCCC[C@H]1C(=O)OCc1ccccc1)c1cccc2ccccc12` [Compound 48], the Ki in assay [1] is 1 µM. In addition, in assay [2], the Kd came out at 2 µM. Further, the half-inhibitory concentration (IC50) in assay [3], in assay [4], in assay [5] and in assay [6] was above 10 µM each time.
On to `O=C(C(=O)N1CCCC[C@H]1C(=O)OCc1cccc(Oc2ccccc2)c1)c1ccccc1` [Compound 62], for which the Ki in assay [1] turned out to be 0.09 µM. Also, in assay [2], the Kd worked out at 0.15 µM. The IC50 in assay [3] was 6.5 µM; in assay [4], above 10 µM; in assay [5], above 10 µM; in assay [6], above 10 µM.
Regarding `COc1cc(C(=O)C(=O)N2CCCC[C@H]2C(=O)OCCCCc2ccccc2)cc(OC)c1OC` [Compound 63], in assay [2], the Kd was 0.1 µM. For the same compound, the IC50 in assay [3] is 6 µM; in assay [4], 3.1 µM; in assay [5] it was 10 µM; in assay [6], 8.5 µM.
With `COc1ccc(C=CCCOC(=O)[C@@H]2CCCCN2C(=O)C(=O)c2cc(OC)c(OC)c(OC)c2)cc1` [Compound 90], the Ki in assay [1] came out at 0.011 µM. Moreover, the Kd in assay [2] came out at 0.6 µM. The IC50 in assay [3] was 8 µM; in assay [4], above 10 µM; in assay [5] it was above 10 µM; in assay [6], above 10 µM.
With `C[C@H](OC(=O)[C@@H]1CCCCN1C(=O)C(=O)c1ccccc1)c1ccccc1` [Compound 49], in assay [1], the Ki is 0.5 µM. In assay [2], the Kd was determined as 0.6 µM. For the same compound, the IC50 in assay [3] is above 10 µM; in assay [4] it was 6.2 µM; in assay [5], above 10 µM; in assay [6], above 10 µM.
Turning to `COc1cc(C(=O)C(=O)N2CCCC[C@H]2C(=O)OCCCCCC2CCCCC2)cc(OC)c1OC` [Compound 74], the Ki in assay [1] was determined as 0.09 µM. Besides, the Kd in assay [2] came out at 0.08 µM. Further, the IC50 in assay [3] was 8 µM; in assay [4], 9 µM; in assay [5], 10 µM; in assay [6], 10 µM.
In the case of `O=C(C(=O)N1CCCC[C@H]1C(=O)OCc1ccccc1)c1cccc(OCc2ccccc2)c1` [Compound 53], the Ki in assay [1] was found to be 0.5 µM. The Kd in assay [2] came to 0.2 µM. The IC50 in assay [3] is above 10 µM; in assay [4], 8 µM; in assay [5], above 10 µM; in assay [6], above 10 µM.
In the case of `COc1cc(C(=O)C(=O)N2CCCC[C@H]2C(=O)OCCCCc2ccc(I)cc2)cc(OC)c1OC` [Compound 77], the Ki in assay [1] was 0.016 µM. Moreover, the Kd in assay [2] amounted to 0.06 µM. Moreover, the IC50 in assay [3] is 4.5 µM; in assay [4], 8 µM; in assay [5], 6 µM; in assay [6], 7 µM.
`O=C(C(=O)N1CCCC[C@H]1C(=O)OCCCCc1ccccc1)C1CCCCC1` [Compound 98]: the Ki in assay [1] was found to be 0.08 µM. Besides, the Kd in assay [2] was 0.18 µM. The IC50 in assay [3], in assay [4], in assay [5] and in assay [6] was above 10 µM in each case.
As to `O=C(C(=O)N1CCCC[C@H]1C(=O)OCc1ccccc1)C1CCCCC1` [Compound 40], in assay [1], the Ki amounted to 1.3 µM. Also, in assay [2], the Kd was 3 µM. The IC50 was 7 µM in assay [3], 1 µM in assay [4], above 10 µM in assay [5] and above 10 µM in assay [6].
For `O=C(C(=O)N1CCCC[C@H]1C(=O)OCc1ccccc1)c1ccc([N+](=O)[O-])cc1` [Compound 16], in assay [1], the Ki stood at 160 µM. Also, the Kd in assay [2] is 100 µM. For the same compound, the IC50 in assay [3], in assay [4], in assay [5] and in assay [6] was above 10 µM in each case.
Turning to `O=C(C(=O)N1CCCC[C@H]1C(=O)OCc1ccccc1)c1cccc(C(F)(F)F)c1` [Compound 52], the Ki in assay [1] was 1.5 µM. The Kd in assay [2] came out at 1.3 µM. Besides, the IC50 in assay [3], in assay [4], in assay [5] and in assay [6] was above 10 µM in each case.
For the compound `O=C(C(=O)N1CCCC[C@H]1C(=O)OCc1ccccc1)c1ccc(F)cc1` [Compound 14], the Ki in assay [1] was 4 µM. In addition, the Kd in assay [2] worked out at 10 µM.
`O=C(OCc1ccccc1)[C@@H]1CCCCN1C(=O)/C=C/c1c[nH]c2ccccc12` [Compound 120]: the Ki in assay [1] is above 60 µM. Besides, the Kd in assay [2] is above 8 µM.
Turning to `O=C(OCc1ccccc1)[C@@H]1CCCN1C(=O)/C=C/c1ccc2c(c1)OCO2` [Compound 109, (S)-3-(3,4-Methylenedioxyphenyl)-prop-2-enoylproline benzyl ester], the Ki in assay [1] stood at 3 µM. In addition, in assay [2], the Kd is above 15 µM.
The corresponding values for `COC(=O)C(=O)N(C)CC(=O)OCc1ccccc1` [Compound 124] are 1000 µM and above 200 µM.
Turning to `COC(=O)C(=O)N1CCCC[C@H]1C(=O)OCCC1CCCCC1` [Compound 32], in assay [1], the Ki turned out to be 45 µM. In addition, the Kd in assay [2] was above 40 µM.
On to `O=C(C(=O)N1CCCC[C@H]1C(=O)OCc1ccccc1)c1c[nH]c2ccccc12` [Compound 21], for which the Ki in assay [1] was found to be 25 µM. Moreover, in assay [2], the Kd came out at 20 µM.
Consider `COc1ccccc1C(=O)C(=O)N1CCCC[C@H]1C(=O)OCc1ccccc1` [Compound 8], for which the Ki in assay [1] is 17 µM. In addition, in assay [2], the Kd was above 75 µM.
`COC(=O)C(=O)N(C)[C@@H](C)C(=O)OCc1ccccc1` [Compound 125]: the Ki in assay [1] amounted to 400 µM. In addition, in assay [2], the Kd is above 200 µM.
With `CC(C)(C)/C=C/C(=O)C(=O)N1CCCC[C@H]1C(=O)OCc1ccccc1` [Compound 54], the Ki in assay [1] is 9 µM. The Kd in assay [2] is 3 µM.
Take `COC(=O)C(=O)N1CCCC[C@H]1C(=O)OC/C(C)=C/[C@H]1CC[C@@H](O)CC1` [Compound 39]: in assay [1], the Ki came to 70 µM. In assay [2], the Kd was above 20 µM.
For the compound `CCN(C(=O)C(=O)OC)[C@@H](C)C(=O)OC(C)(C)C` [Compound 128], in assay [1], the Ki is above 400 µM. Further, in assay [2], the Kd was above 500 µM.
For the compound `O=C(C(=O)N1CCCC[C@H]1C(=O)OCc1ccccc1)c1cccc([N+](=O)[O-])c1` [Compound 15], in assay [1], the Ki was determined as 160 µM. In assay [2], the Kd is above 75 µM.
Turning to `COc1ccc(CCCCOC(=O)[C@@H]2CCCCN2C(=O)C(=O)c2cc(OC)c(OC)c(OC)c2)cc1` [Compound 85], the Kd in assay [2] was 0.049 µM. Moreover, the IC50 in assay [3] stood at 4.5 µM; in assay [4] it was 4.5 µM; in assay [5], 7 µM; in assay [6], 10 µM.
In the case of `O=C(C(=O)N1CCCC[C@H]1C(=O)OCc1ccccc1)c1cccc[n+]1[O-]` [Compound 18], the Ki in assay [1] is above 500 µM. Besides, the Kd in assay [2] is 10 µM.
